Measured values published in patent US20260327214A1, “1,3,4-OXADIAZOLE DERIVATIVE COMPOUNDS AS HISTONE DEACETYLASE 6 INHIBITOR, AND USES THEREOF” (CHONG KUN DANG PHARMACEUTICAL CORP., priority 2022, published 2026).

Legend:
[1] = molecular target: T1, human recombinant HDAC1 (Homo sapiens, UniProt Q13547); assay: HDAC1 enzyme activity inhibition test (HDAC Fluorometric Drug Discovery Kit); format: biochemical; conditions: 30° C., 60 minutes, 10 μM substrate
T1 construct: purchased Enzo Life Science BML-SE456
Procedure, shortened: (§1)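 IC50 derived from fluorescence (Ex 360, Em 460) following 30 min development with Developer II. Each reaction held 0.3 μg human recombinant HDAC1 or HDAC6, 10 μM Fluor de Lys SIRT1 substrate and 5-fold serially diluted compound, incubated 60 min at 30 °C.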

[2] = molecular target: T2, human recombinant HDAC6 (Homo sapiens, UniProt Q9UBN7); assay: HDAC6 enzyme activity inhibition test (HDAC Fluorometric Drug Discovery Kit); format: biochemical; conditions: for HDAC6 selectivity (fold): HDAC6 over HDAC1; for IC50: human recombinant HDAC6, same protocol as HDAC1
T2 construct: purchased Calbiochem 382180
T2 sequence (Q9UBN7 1-1215): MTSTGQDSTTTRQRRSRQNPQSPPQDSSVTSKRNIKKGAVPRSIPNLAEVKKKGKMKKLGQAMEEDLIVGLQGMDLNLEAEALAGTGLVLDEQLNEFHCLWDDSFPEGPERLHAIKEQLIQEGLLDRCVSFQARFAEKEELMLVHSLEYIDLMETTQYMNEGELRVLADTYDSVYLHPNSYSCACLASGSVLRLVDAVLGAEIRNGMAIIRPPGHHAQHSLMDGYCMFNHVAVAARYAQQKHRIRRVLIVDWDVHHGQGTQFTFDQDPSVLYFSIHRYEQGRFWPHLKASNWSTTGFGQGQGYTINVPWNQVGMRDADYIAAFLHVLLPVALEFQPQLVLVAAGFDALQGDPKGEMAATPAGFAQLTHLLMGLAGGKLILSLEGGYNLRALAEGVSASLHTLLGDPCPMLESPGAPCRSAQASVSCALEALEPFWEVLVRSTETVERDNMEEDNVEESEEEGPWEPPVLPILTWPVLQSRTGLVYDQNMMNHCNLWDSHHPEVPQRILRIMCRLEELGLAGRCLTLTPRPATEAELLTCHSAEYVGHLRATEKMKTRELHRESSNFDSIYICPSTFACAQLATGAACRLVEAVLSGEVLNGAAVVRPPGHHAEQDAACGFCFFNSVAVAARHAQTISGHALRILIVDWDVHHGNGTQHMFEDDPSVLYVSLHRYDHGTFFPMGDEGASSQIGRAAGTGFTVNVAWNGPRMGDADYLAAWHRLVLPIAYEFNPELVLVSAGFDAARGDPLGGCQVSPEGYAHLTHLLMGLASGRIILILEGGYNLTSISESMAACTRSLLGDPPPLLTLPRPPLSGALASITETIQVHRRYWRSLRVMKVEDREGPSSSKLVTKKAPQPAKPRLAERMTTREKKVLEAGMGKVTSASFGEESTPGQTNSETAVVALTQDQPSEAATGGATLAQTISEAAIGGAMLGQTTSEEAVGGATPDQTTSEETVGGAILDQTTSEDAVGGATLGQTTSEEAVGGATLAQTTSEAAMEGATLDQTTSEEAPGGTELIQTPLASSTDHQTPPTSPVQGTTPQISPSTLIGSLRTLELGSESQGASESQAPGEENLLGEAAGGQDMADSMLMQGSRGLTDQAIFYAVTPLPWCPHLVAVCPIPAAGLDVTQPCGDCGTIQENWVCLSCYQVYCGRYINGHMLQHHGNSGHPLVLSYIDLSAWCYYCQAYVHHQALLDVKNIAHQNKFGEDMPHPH
Procedure, shortened: as §1

T1 sequence (Q13547 whole entry): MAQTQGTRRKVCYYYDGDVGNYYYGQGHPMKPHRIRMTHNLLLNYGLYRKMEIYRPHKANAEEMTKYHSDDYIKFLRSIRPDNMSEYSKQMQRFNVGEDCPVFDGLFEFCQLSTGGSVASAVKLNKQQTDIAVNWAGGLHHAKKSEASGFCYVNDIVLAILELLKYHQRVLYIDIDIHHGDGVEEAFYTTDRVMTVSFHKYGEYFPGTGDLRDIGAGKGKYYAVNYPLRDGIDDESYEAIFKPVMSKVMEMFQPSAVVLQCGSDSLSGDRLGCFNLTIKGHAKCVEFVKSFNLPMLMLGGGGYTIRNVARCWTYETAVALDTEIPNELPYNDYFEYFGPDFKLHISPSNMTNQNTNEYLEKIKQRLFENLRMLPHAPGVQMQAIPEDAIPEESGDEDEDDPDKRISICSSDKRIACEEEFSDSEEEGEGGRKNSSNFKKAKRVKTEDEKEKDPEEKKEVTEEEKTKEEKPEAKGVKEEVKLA

Row | Compound | IC50 [1] | HDAC6 selectivity (fold) [2] | IC50 [2]
1 | Fc1cc(-c2nnc(C(F)F)o2)cnc1Cn1nc(-c2cccs2)oc1=S [Compound 51, 3-[[5-[5-(difluoromethyl)-1,3,4-oxadiazol-2-yl]-3-fluoro-2-pyridyl]methyl]-5-(2-thienyl)-1,3,4-oxadiazol-2-thione] | > 50 µM | 601 fold | 83.2 nM
2 | FC(F)c1nnc(-c2ccc(Cn3nc(-c4cccnc4)oc3=S)nc2)o1 [Compound 52, 3-[[5-[5-(difluoromethyl)-1,3,4-oxadiazol-2-yl]-2-pyridyl]methyl]-5-(3-pyridyl)-1,3,4-oxadiazol-2-thione] | > 50 µM | 473 fold | 106 nM
3 | Fc1cc(-c2nnc(C(F)F)o2)cnc1Cn1nc(-c2cnccn2)oc1=S [Compound 53, 3-[[5-[5-(difluoromethyl)-1,3,4-oxadiazol-2-yl]-3-fluoro-2-pyridyl]methyl]-5-pyrazine-2-yl-1,3,4-oxadiazol-2-thione] | > 50 µM | 560 fold | 89.3 nM
4 | Cc1nc(-c2nn(Cc3ccc(-c4nnc(C(F)F)o4)cn3)c(=S)o2)cs1 [Compound 59, 3-[[5-[5-(difluoromethyl)-1,3,4-oxadiazol-2-yl]-2-pyridyl]methyl]-5-(2-methylthiazol-4-yl)-1,3,4-oxadiazol-2-thione] | > 50 µM | 669 fold | 74.7 nM
5 | Cc1nc(-c2nn(Cc3ncc(-c4nnc(C(F)F)o4)cc3F)c(=S)o2)cs1 [Compound 60, 3-[[5-[5-(difluoromethyl)-1,3,4-oxadiazol-2-yl]-3-fluoro-2-pyridyl]methyl]-5-(2-methylthiazol-4-yl)-1,3,4-oxadiazol-2-thione] | > 50 µM | 614 fold | 81.4 nM
6 | Cc1ncc(-c2nn(Cc3ncc(-c4nnc(C(F)F)o4)cc3F)c(=S)o2)s1 [Compound 61, 3-[[5-[5-(difluoromethyl)-1,3,4-oxadiazol-2-yl]-3-fluoro-2-pyridyl]methyl]-5-(2-methylthiazol-5-yl)-1,3,4-oxadiazol-2-thione] | > 50 µM | 540 fold | 92.6 nM
7 | Fc1cc(-c2nnc(C(F)F)o2)cnc1Cn1nc(-c2cccnc2)oc1=S [Compound 62, 3-[[5-[5-(difluoromethyl)-1,3,4-oxadiazol-2-yl]-3-fluoro-2-pyridyl]methyl]-5-(3-pyridyl)-1,3,4-oxadiazol-2-thione] | > 50 µM | 500 fold | 100 nM
8 | O=c1sc(-c2ccc(CN3CCN(C4CS(=O)(=O)C4)CC3)cc2)nn1Cc1ccc(-c2nnc(C(F)F)o2)cn1 [Compound 68] | > 50 µM | 473 fold | 106 nM
9 | O=C1OCC(c2cccs2)=NN1Cc1ccc(-c2nnc(C(F)F)o2)cn1 [Compound 69, 3-[[5-[5-(difluoromethyl)-1,3,4-oxadiazol-2-yl]-2-pyridyl]methyl]-5-(2-thienyl)-6H-1,3,4-oxadiazin-2-one] | > 50 µM | 434 fold | 115 nM
10 | O=C1OCC(c2cccs2)=NN1Cc1ncc(-c2nnc(C(F)F)o2)cc1F [Compound 70, 3-[[5-[5-(difluoromethyl)-1,3,4-oxadiazol-2-yl]-3-fluoro-2-pyridyl]methyl]-5-(2-thienyl)-6H-1,3,4-oxadiazin-2-one] | > 50 µM | 460 fold | 109 nM
11 | O=C1OCC(c2ccccc2)=NN1Cc1ncc(-c2nnc(C(F)F)o2)cc1F [Compound 71, 3-[[5-[5-(difluoromethyl)-1,3,4-oxadiazol-2-yl]-3-fluoro-2-pyridyl]methyl]-5-phenyl-6H-1,3,4-oxadiazin-2-one] | > 50 µM | 510 fold | 98 nM
12 | O=C1OCC(c2ccccn2)=NN1Cc1ccc(-c2nnc(C(F)F)o2)cn1 [Compound 72, 3-[[5-[5-(difluoromethyl)-1,3,4-oxadiazol-2-yl]-2-pyridyl]methyl]-5-(2-pyridyl)-6H-1,3,4-oxadiazin-2-one] | > 50 µM | 420 fold | 119 nM

Next, values leading:

Row | IC50 [1] | HDAC6 selectivity (fold) [2] | IC50 [2] | Compound
13 | > 50 µM | 444 fold | 113 nM | O=c1sc(-c2ccccc2F)nn1Cc1ccc(-c2nnc(C(F)F)o2)cn1 [Compound 54, 3-[[5-[5-(difluoromethyl)-1,3,4-oxadiazol-2-yl]-2-pyridyl]methyl]-5-(2-fluorophenyl)-1,3,4-thiadiazol-2-one]
14 | > 50 µM | 634 fold | 78.9 nM | CC(C)N1CCC(c2ccc(-c3nn(Cc4ccc(-c5nnc(C(F)F)o5)cn4)c(=O)s3)cc2)CC1 [Compound 55, 3-[[5-[5-(difluoromethyl)-1,3,4-oxadiazol-2-yl]-2-pyridyl]methyl]-5-[4-(1-isopropyl-4-piperidyl)phenyl]-1,3,4-thiadiazol-2-one]
15 | > 50 µM | 422 fold | 118 nM | O=c1sc(-c2ccc(C3CCN(C4COC4)CC3)cc2)nn1Cc1ccc(-c2nnc(C(F)F)o2)cn1 [Compound 56, 3-[[5-[5-(difluoromethyl)-1,3,4-oxadiazol-2-yl]-2-pyridyl]methyl]-5-[4-[1-(oxetane-3-yl)-4-piperidyl]phenyl]-1,3,4-thiadiazol-2-one]
16 | > 50 µM | 954 fold | 52.4 nM | CC(C)N1CCC(c2cccc(-c3nn(Cc4ccc(-c5nnc(C(F)F)o5)cn4)c(=O)s3)c2F)CC1 [Compound 57, 3-[[5-[5-(difluoromethyl)-1,3,4-oxadiazol-2-yl]-2-pyridyl]methyl]-5-[2-fluoro-3-(1-isopropyl-4-piperidyl)phenyl]-1,3,4-thiadiazol-2-one]
17 | > 50 µM | 643 fold | 77.8 nM | O=c1sc(-c2cccc(C3CCN(C4COC4)CC3)c2F)nn1Cc1ccc(-c2nnc(C(F)F)o2)cn1 [Compound 58, 3-[[5-[5-(difluoromethyl)-1,3,4-oxadiazol-2-yl]-2-pyridyl]methyl]-5-[2-fluoro-3-[1-(oxetane-3-yl)-4-piperidyl]phenyl]-1,3,4-thiadiazol-2-one]
18 | > 50 µM | 620 fold | 80.7 nM | CC(C)N1CCN(Cc2cccc(-c3nn(Cc4ccc(-c5nnc(C(F)F)o5)cn4)c(=O)s3)c2)CC1 [Compound 63, 3-[[5-[5-(difluoromethyl)-1,3,4-oxadiazol-2-yl]-2-pyridyl]methyl]-5-[3-[(4-isopropylpiperazin-1-yl)methyl]phenyl]-1,3,4-thiadiazol-2-one]
19 | > 50 µM | 418 fold | 120 nM | O=c1sc(-c2cccc(CN3CCN(C4CCC4)CC3)c2)nn1Cc1ccc(-c2nnc(C(F)F)o2)cn1 [Compound 64, 5-[3-[(4-cyclobutylpiperazin-1-yl)methyl]phenyl]-3-[[5-[5-(difluoromethyl)-1,3,4-oxadiazol-2-yl]-2-pyridyl]methyl]-1,3,4-thiadiazol-2-one]
20 | > 50 µM | 537 fold | 93.1 nM | O=c1sc(-c2cccc(CN3CCN(C4CS(=O)(=O)C4)CC3)c2)nn1Cc1ccc(-c2nnc(C(F)F)o2)cn1 [Compound 65, 3-[[5-[5-(difluoromethyl)-1,3,4-oxadiazol-2-yl]-2-pyridyl]methyl]-5-[3-[[4-(1,1-dioxothietan-3-yl)piperazin-1-yl]methyl]phenyl]-1,3,4-thiadiazol-2-one]
21 | > 50 µM | 1497 fold | 33.4 nM | CC(C)N1CCN(Cc2ccc(-c3nn(Cc4ccc(-c5nnc(C(F)F)o5)cn4)c(=O)s3)cc2)CC1 [Compound 66]
22 | > 50 µM | 890 fold | 56.2 nM | O=c1sc(-c2ccc(CN3CCN(C4CCC4)CC3)cc2)nn1Cc1ccc(-c2nnc(C(F)F)o2)cn1 [Compound 67]
